Experimental data published in patent US7968516B2, “Treatment of multiple sclerosis and other autoimmune diseases by use of calpin inhibitors” (ProTor Pharma Corporation, priority 2004, dated 2011).
Where a SMILES comes first, the peptide text is derived from it. [ ]: non-standard residue; d: D form. Cya = N[CH](CS(=O)(=O)O)C(=O)O

How the values were obtained:
[1] = Experiment 7: plasma and retina concentrations after oral CLA-acetal; format: in vivo, Sprague-Dawley rats; settings: after 10 mg/kg oral CLA-acetal
Protocol: Male Sprague-Dawley rats (n=5 per time point, weight 200-250 g) were administer 10 mg/kg CLA-acetal by oral gavage, formulated as a 0.6% solution in phosphate-buffered saline. At 0.1, 0.25, 0.5, 1, 2, 4, 8, 12 and 24 hours, the rats were anesthetized, blood samples were collected, and the retinas were isolated. The plasma samples (200 μL) were treated with 1 mL methanol and centrifuged to remove protein. The supernatants from centrifugation were evaporated, and the residue was taken up in 0.02% aqueous ammonium heptafluorobutyrate (1 mL). The retina samples were homogenized, treated with methanol, centrifuged, and evaporated, and the residue was taken up in 0.02% aqueous ammonium heptafluorobutyrate (1 mL). The plasma and retinal concentrations of CLA and CLA-acetal were determined by liquid chromatography followed by turbo ion spray mass spectrometry on an MDS-Sciex API 4000 triple-quadropole mass spectrometer equipped with a turbo ion spray source. Elution peaks yielding ions corresponding to CLA or CLA-acetal were integrated and used to determine the amount of compound present, by reference to standards. Data reduction was performed using Sciex Analyst version 1.3 software. The peak concentrations (Cmax) were estimated from the concentrations of CLA measured over time.

[2] = tested on: MOG aa35-55 induced EAE in C57BL/6J mice; experiment: Experiment 3: EAE clinical scores, CLA twice daily after disease process started; format: in vivo
Protocol: (§1) Clinical evaluation: Mice were evaluated daily for clinical signs of disease for up to 19 days after inoculation. Clinical severity was assessed on a scale of 0-6 as follows: • […] abnormality • 1 ? mild hind limb weakness (some difficulty righting themselves when turned on their backs), sometimes associated with a weak or floppy tail. • 2 ? moderate hind limb weakness associated with a floppy tail. • 3 ? paralysis of hind limbs, sometimes more marked on one side, but no forelimb weakness. • 4 ? hind leg paralysis accompanied by forelimb weakness. • 5 ? quadriplegia; paralysis of both hind limbs and forelimbs. • 6 ? moribund or death.
To induce EAE, mice were each inoculated once with MOG aa35-55 in Complete Freund's Adjuvant (CFA) and Pertussis toxin as previously described. Thirty 7 to 8-week-old female C57BL/6J mice (Jackson Laboratories, Bar Harbor, Mass.) were used in this experiment. […] Controls included two groups of 4 mice for CLA only and CFA/PT only and 4 were left as normal controls. CLA was dissolved in PBS and each mouse in the treatment group was injected i.p. with 200 μl of PBS containing 0.5 mg of CLA every 12 hours until the end of the experiment on day 25 pi. Mice were evaluated daily for clinical signs and symptoms of EAE and graded on a 0-6 scale for up to 25 days after inoculation as detailed above. Scores of asymptomatic mice (score=0) were included in the calculation of the daily mean clinical score for each group.

[3] = tested on: spinal cord white matter of EAE mice; experiment: Experiment 2: Luxol Fast Blue staining, myelin content of spinal cord; format: in vivo; settings: lumbar spinal cord, CLA-treated EAE mice
Protocol: Luxol Fast Blue (LFB) Staining of Spinal Cord Tissues: This staining method, which identifies changes in myelin content of CNS tissues, was performed as previously described (39). Six-10 μm tissue sections were prepared from the lumbar spinal cords of all mice at the end of the experiment. The sections were stained with LFB and counterstained with eosin and cresyl violet to observe changes in the myelin content of the control and treatment groups: A: CFA control; B: MOG/CFA immunized: C; MOG/CFA immunized and CLA-treated. 20× magnification. All myelin containing regions stain blue.

[4] = tested on: MOG aa35-55 induced EAE in C57BL/6J mice; experiment: Experiment 1: EAE clinical scores, CLA started at immunization; format: in vivo
Protocol: To induce EAE, 7-8 week-old female C57BL/6J mice (Jackson Laboratories, Bar Harbor, Md.) were used. Animals were housed according to IACUC regulations in an AAALAC certified facility. Each was injected subcutaneously (s.c.) at two sites on the flanks with 300 μg of myelin oligodendrocyte glycoprotein (MOG) peptide 35-55 in Complete Freund's Adjuvant (CFA) twice with a one week interval between injections, as previously reported (14). Pertussis toxin (PT) was given intraperitoneally on days 0 and 2 post-immunization. CLA was administered to 12 MOG/CFA immunized mice, i.p. at an initial dose of one mg/mouse, starting on the day of the second immunization, followed by 0.5 mg/mouse/day until the end of the experiment, which lasted 19 days. […]
as §1, with “death. […]” for “death.”

[5] = tested on: spinal cord axons of EAE mice; experiment: Experiment 4: axonal integrity by LFB staining; format: in vivo; settings: day 30 post-immunization
Excerpt: Evaluation of axonal integrity using LFB staining: Spinal cord tissue was taken from mice at day 30 post-immunization, approximately 13 days into the chronic phase of EAE. Myelin is stained a blue color by LFB, and the appearance of a normal myelin-coated axon, taken from spinal cord tissue, is shown longitudinally in FIG. 8A.

[6] = tested on: amyloid precursor protein (APP); experiment: Experiment 4: accumulation of amyloid precursor protein in axons; format: in vivo, mice; settings: spinal cord, day 30, anti-APP antibody
Excerpt: Spinal cord tissue taken from mice at day 30 was stained with a fluorescently-labeled anti-APP antibody.

[7] = tested on: outer hair cells of the cochlea; experiment: Experiment 6: acoustic trauma, outer hair cell counts; format: in vivo, chinchillas; settings: 7 mg/kg/day i.p. for seven days; as a function of distance from apex of cochlea
Protocol: (§2) Twelve chinchillas were divided into treatment and control groups (six animals each). The treatment groups received 7 mg/kg/day CLA i.p., for seven days. The control groups received an identical volume of PBS vehicle. Starting on day 0, all of the animals were exposed to a 105 decibel sound pressure level (SPL) noise with a frequency band centered on 4 kilohertz (kHz). The noise exposure lasted for 48 hours, ending two days after the beginning of the dose. Approximately 4 weeks after the noise exposure and dosing, the animals were anesthetized, tracheotimized, and placed upon a heating pad (37 degrees C.). A silver-ball electrode was attached to the round window of the left and right ears to record the compound action potential (CAP). CAP input functions were recorded at 0.5, 1, 2, 4, 8, 16 kHz tone burst levels generated by a digital-to-analog converter attached to a computer. The CAP threshold shift is the change in sound level required to generate an action potential at the electrode subsequent to noise exposure, and increases in the threshold shift reflect increased hearing loss. […] After the CAP threshold shifts were measured, the animals were decapitated, and the cochleae were removed. The hair cells from 11 cochleae were evaluated histologically. […] The numbers of outer hair cells (#OHC) were counted as a function of the distance from the apex of the cochlea. […]

[8] = tested on: chronic phase of EAE in C57BL/6J mice; experiment: Experiment 4: chronic phase EAE clinical scores; format: in vivo; settings: 30 days
Protocol: as §1
The chronic phase of EAE occurs after the clinical score of an affected mouse reaches a plateau at the highest level of the acute phase of the disease. In this chronic phase, more extensive damage occurs to nerve axons, beyond the demyelination observed in the acute phase of the disease (22). EAE was induced in 7-8 week-old female C57BL/6J “mice” by subcutaneous (s.c.) injection in each flank with 100 μl of an emulsion containing […] Freund's Adjuvant supplemented with 500 μg heat inactivated mycobacterium tuberculosis (Sigma St. Louis, Mo.) and 300 μg MOG 35-55. 100 ng of Pertussis toxin (PT) was given intraperitoneally on days 0 and 2 post-immunization. […]

[9] = tested on: spinal cord white matter of EAE mice; experiment: Experiment 2: H&E staining, cellular infiltration of spinal cord white matter; format: in vivo; settings: CLA-treated EAE mice, tissues at end of experiment
Protocol: Hematoxylin and Eosin Staining (H&E): H&E staining was used to show cellular infiltration of spinal cord white matter in mice with acute EAE in comparison with other groups of CFA control and CLA-treated EAE mice, as previously described (14). All staining was performed on tissues that were collected at the end of the experiment. In FIG. 3, 6-10 μm tissue sections were prepared from spinal cords of all mice at the end of the experiment. These tissues were stained with H&E to show inflammatory infiltration (indicated by arrows). A: CFA control; B: MOG/CFA immunized; C: MOG/CFA immunized and CLA-treated. 20× magnification.

[10] = tested on: chinchillas exposed to 105 decibel SPL noise; experiment: Experiment 6: acoustic trauma, compound action potential (CAP) threshold shift; format: in vivo; settings: 7 mg/kg/day i.p. for seven days; about 4 weeks after noise exposure
Protocol: as §2

calpain = experiment: Experiment 2: immunofluorescent staining for calpain, CD11b and CD45 in spinal cord white matter; format: in vivo; settings: untreated versus CLA-treated EAE mice
Protocol: Expression of Calpain in Spinal Cord White Matter: Expression of calpain was determined in spinal cord tissues collected from all experimental and control groups of mice at the end of the experiment. Sections of paraformaldehyde-fixed tissues were stained with antibodies against calpain (FITC conjugated), CD11b (MΦ/microglia marker)(Texas Red-conjugated) and CD45 (leukocyte common antigen) (FITC-conjugated). Referring to FIG. 5, six 10 μm sections were stained with anti-calpain antibody and specific cell marker antibodies (CD45, CD11b). Positive staining for calpain (A, B, C); cells positive for MΦ/microglia marker (CD11b^+) (D, E, F); cells positive for leukocyte common antigen (CD 45^+)(G, H, I). 20× magnification. […] All leukocytes including MΦ, but not microglia, are stained with CD45.

EAE in rats = settings: cited from earlier work
[11] = tested on: cochlear and vestibular hair; settings: cited from earlier work
[12] = cited from earlier work
[13] = CLA 0.5 mg i.p. every 12 hours from day 7 pi
[14] = CLA twice daily started after signs of stage 2 EAE

## CC(C)CC(NC(=O)C(N)CS(=O)(=O)O)C(=O)NC(C=O)CCCNC(=N)N (stereo not drawn) [CLA, cysteyl-leucyl-argininal] (H-[Cya]-Leu-Arg-aldehyde; configuration not given here)
[1]
  concentrations in retina compared with plasma: much higher in retina than in plasma
[2]; [13]
  onset of signs of EAE: 15 day pi
  severity of EAE symptoms: did not develop severe paralysis of the limbs
[2]; [14]
  average clinical score (ACS) on day 17 pi: 1.60
  clinical score on day 25 pi: less than two
[2]; D7 CLA-treated MOG/CFA mice
  clinical score on day 25 pi: less than one
[2]; D7 CLA-treated MOG/CFA mice, 0.5 mg i.p. every 12 hours
  average clinical score (ACS) on day 17 pi: 0.5
[2]; control mice, CLA only
  health of CLA only mice: remained healthy
[3]
  demyelination (LFB staining): fewer areas of demyelination
[4]; MOG/CFA immunized mice, CLA i.p. one mg/mouse then 0.5 mg/mouse/day, scale 0-6, 19 days
  average clinical score (ACS): 1.86
[4]; control mice not immunized with MOG
  effect of CLA only or CFA/CLA on mice: no effect
[5]
  axonal integrity (LFB staining): marked improvement in axonal integrity
[6]
  accumulation of APP in axons: reduces accumulation of APP
[7]
  numbers of outer hair cells (#OHC): increase in the number of outer hair cells at all distances from the apex
[8]; CLA 2 mg/mouse/day i.p. from day 7 (prior to onset)
  maximum clinical score: below 0.5
[8]; CLA 2 mg/mouse/day i.p. from day 12 (after onset)
  maximum clinical score: < 1.0
[9]
  cellular infiltration and perivascular cuffing (H&E): moderate cellular infiltration and perivascular cuffing
[10]
  CAP threshold shift: decreased the CAP threshold shift
calpain
  CD45+ cells (leukocytes): only marginally higher than CLA-treated EAE mice
  expression of calpain in spinal cord white matter: elevated in untreated EAE mice (FIG. 5B) as compared with CLA-treated EAE mice
  presence of macrophages/microglia (CD11b+ cells): higher in untreated EAE mice (FIG. 5E) than CLA-treated EAE

## CC(=O)N[C@@H](CC(C)C)C(=O)N[C@@H](CC(C)C)C(=O)N[C@H](C=O)CCCNC(=N)N [leupeptin]
EAE in rats
  suppression of EAE: suppressing EAE
[11]
  protection from gentamycin ototoxicity: protects cochlear and vestibular hair from gentamycin oxotoxicity
[12]
  cellular permeability: poor cellular permeability
